Experiment [1] deals with endometrial stromal cells. Put plainly: Apoptosis by Annexin V-FITC/PI flow cytometry. The class given is cell-based, human. Conditions: regardless of dose, 24 h. Here is the method:
Endometrial tissues were surgically isolated from patients with chocolate cyst of ovary, washed 2 to 3 times with PBS supplemented with antibiotics in ultra-clean cabinet, and cut into tiny pieces (about 1 mm^3 in size) with aseptic scissors. The tissues were digested with 1 mg/ml collagenase type I for 30 to 90 min at 37° C., and continually digested with Dnase I (final concentration of 15 U/ml, 2% Dnase I) for another 30 min. The digested tissues were filtered thorough 60-mesh stainless steel filter cell strainer to remove the undigested cell tissues, and were further filtered with 200- or 400-mesh strainer. The filtered solution was centrifuged at 1000 rpm for 5 min. After removing the supernatants, the cells were washed once with culture medium compounded by DMEM/F12 (1:1 v/v) and 10% fetal bovine serum, re-suspended in the culture medium, and seeded in 6-well tissue culture plate or T25 tissue culture flasks with an appropriate density. After 24 hours incubation, the culture medium was changed to remove the non-adherent blood cells, endothelial cells, macrophages and other miscellaneous cells. […] Vimentin which expresses specifically in stromal cells was detected by immuno-fluorescence to measure the cell purity. […] Cell cycle was determined with flow cytometry. […] Cell apotosis was determined by flow cytometry.

For the next experiment, the system named is ectopic endometrial foci. Put plainly: Endometriosis rat model, weight of transplanted foci. Type of experiment: in vivo, SD rats.
Experiment [2] deals with infiltration of endometrial stroma and glands into myometrium. Briefly: Adenomyosis mouse model created with tamoxifen, pathological section. Type of experiment: in vivo, mice. Here is the method: Disodium salt of PQQ was used in the present experiment (PQQ-Na2, donated by MITSUBISHI gas chemical (MGC), Japan). The salt was dissolved with water and the concentration of its mother liquid is 1 mg/mL.
In the present Example, the mouse model of adenomyosis was created with tamoxifen. This method is easy to operate, the rate of molding can reach 100%, and the difference between the model mouses caused by the operation is small. At 2˜5 days after birth (the birth day was the first day), the mice were fed with 5 ul/(g·BW) peanut oil/lecithin/condensed milk mixture (volume ratio 2:0.2:3) supplemented with 0.2 mg/ml tamoxifen (produced by shanghai Fudan Fuhua Pharmaceutical Co, Ltd.) by drip feeding. In the negative control group, the mice were fed with peanut oil/lecithin/condensed milk mixture (volume ratio 2:0.2:3), with no tamoxifen added. All the mice were exposed to light for 12 h/day, and were reared by maternal lactation during 1-21 days of age. After 22 days of birth, the mice were separated with mother mice, and the female mice were reserved for the next experiment.
After 3 months, 7 model mice were killed after anesthesia. […] The remaining model mice were divided into 5 groups with 20 mice in each group. One of the groups was chosen as model control group (fed with normal water). The drinking water for other group were supplemented with PQQ (1 mg/kg/day), NAC (10 mg/kg/day), PQQ (1 mg/kg/day) +NAC (10 mg/kg/day) (denoted by P+N (H)); PQQ (0.2 mg/kg/day) +NAC (5 mg/kg/day) (denoted by P+N (L)).
After treatment with drugs for 4 weeks, the mice were killed by anesthesia. The uterus was surgically removed and the invasion of endometria into myometrium was analyzed by the pathological section.

Setting [3] is: 4 weeks in drinking water, PQQ (disodium salt) 1 mg/kg/day, NAC 10 mg/kg/day, P+N (H) 1+10, P+N (L) 0.2+5 mg/kg/day.

Marks after values point to notes of the source that are not given here.

Consider `O=C(O)c1cc(C(=O)O)c2c(n1)C(=O)C(=O)c1cc(C(=O)O)[nH]c1-2` [PQQ, pyrroloquinoline quinone], for which, in experiment [1], the “apoptosis or necrosis compared to the control” value is listed as “No endometrial stromal cells apoptosis or necrosis”. For the same compound, the “weight of ectopic endometrial foci compared with the control group” value in the experiment on ectopic endometrial foci (Example 5, rats, after 4 weeks treatment) is “evidently lower than that from the control group”. In addition, in the experiment with ectopic endometrial foci (Example 5, rats, water feeding 4 week, PQQ 1 mg/kg, NAC 10 mg/kg, Resveratro 10 mg/kg, n=9), the “weight of cysts after treatment (mg) Mean ± SD” value amounted to 71.2 ± 23.2 mg. The “weight of ectopic cys after treatment (mg) Mean ± SD” value in the experiment on ectopic endometrial foci (Example 7, rats, 4 weeks in drinking water, PQQ (disodium salt) 1 mg/kg/day, NAC 10 mg/kg/day, P+N (H) 1+10, P+N (L) 0.2+5 mg/kg/day, n=12) was 69.5 ± 12.7 mg. Besides, the “weight of ectopic cyst compared with model control group” value in the experiment on ectopic endometrial foci (Example 7, rats, after 4 weeks treatment, PQQ as disodium salt) is reported as “evidently lower than that in the model control group”. In addition, in experiment [2] (setting [3]), the “infiltration of endometrial glands, positive animals/total animals” value was 9/20*# and the “infiltration of endometrial stroma, positive animals/total animals” value is 10/20*#. The “number of animals with infiltration of endometrial stroma and glands compared with model control group” value in experiment [2] (after 4 weeks treatment, PQQ as disodium salt) is listed as “evidently lower than that in the model control group”.

Source of the values: patent publication US10959998B2, “Pharmaceutical use and pharmaceutical composition of pyrroloquinoline quinine, its derivatives and/or its salts” (priority 2015, dated 2021).
